Data reported in PubChem BioAssay AID2060344 (Molecular Pharmacology Branch, DTP, NCI, 2025).

Test system: SK-MEL-2 multi-cell spheroids, viability
Test: Anticancer human tumor SK-MEL-2 cell line growth inhibition [TAK];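 note: spheroids exposed to drugs for seven days before readout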;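 for viability, T/C: percent of DMSO vehicle control luminescence so 100% = untreated viability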
Conditions: for IC50: curve of first compound; for viability, T/C: stronger effect = lower value
Excerpt: Combinatorial screen of targeted agents with TAK-243 and ipatasertib in multi-cell type tumor spheroids
A high-throughput screen of multi-cell type tumor spheroids was designed to identify active combinations of targeted small molecules and TAK-243 or ipatasertib. Complex spheroids include a stromal component modeled by human endothelial cells (HUVEC) and fibroblasts modeled by human mesenchymal stem cells (MSCs). The concentration ranges selected for each drug and investigational agent were based upon clinically achievable concentrations if the clinical Cmax of the agent was known.
Compounds. The drugs and investigational agents: TAK-243 (785004), ipatasertib (767898), everolimus (733504), selumetinib (741078), bortezomib (756655), trametinib (758246), ixazomib (758254), vemurafenib (761431), dabrafenib (764134), sapanisertib (764658), alpelisib (765974), and copanlisib (816437), were obtained from the National Cancer Institute (NCI) Developmental Therapeutics Program Chemical Repository. The FDA-approved anticancer drug set is available from the NCI Developmental Therapeutics Program. […] The stock solutions were prepared in dimethyl sulfoxide (DMSO, Sigma-Aldrich, St. Louis, MO, cat. D2650) at 800-fold the tested concentration and stored at -70 degrees C prior to their use. All drugs and investigational agents were tested over a range starting from a high concentration at or near the clinical Cmax and decreasing in half-log increments. If the clinical Cmax for an agent had not been determined, the highest concentration tested was 10 microM.
NCI60 Cell Culture. NCI60 cell lines were obtained from the NCI Developmental Therapeutics Program Tumor Repository. For each lot of cells, the Repository performed Applied Biosystems AmpFLSTR Identifiler testing with PCR amplification to confirm consistency with the published Identifier STR profile for each cell line. Cells were kept in continuous culture for no more than 20 passages. The optimal seeding densities for each of the cell lines at each time point assessed were determined prior to performing the concentration response studies. Briefly, the NCI60 human tumor lines were grown as monolayers in RPMI 1640 medium supplemented with 10% FBS and 2 mmol/L L-glutamine.
An additional 2 lines were from the NCI60 cell line panel including melanomas, MALME-3M and SK-MEL-2. Pooled donor human umbilical vein endothelial cells (HUVEC, Lonza, cat. CC-2519) and human mesenchymal stem cells (hMSC, Lonza, cat. PT-2501) were purchased from Lonza (Walkersville, MD).
PDMR cell lines were grown in complete medium (DC medium): Dulbecco's modified Eagle's medium (DMEM)/F12 supplemented with 5% fetal bovine serum (FBS), 2 mM L-glutamine, 100 U/mL penicillin and 100 µg/ml streptomycin, 0.4 µg/ml hydrocortisone, 10 ng/ml epidermal growth factor (EGF) recombinant human protein, 24 µg/mL adenine, and 0.1 mg/mL primocin. During culture from frozen stock vials, PDMR cells were cultured in the same medium containing 10 µM Y-27632 (see Table 3). The PDCs were cultured in complete DMEM/F12 media without 10 microM Y-27632 dihydrochloride for at least two passages prior to the screen. The pooled donor HUVEC and hMSC were cultured in endothelial cell growth medium 2 (PromoCell, Heidelberg, Germany, cat. C-22011) and mesenchymal stem cell growth medium 2 (PromoCell, cat. C-28009), respectively. For all experiments, HUVEC and hMSC were used at passages </=5.
For the pre-screen, cell seeding densities were determined from a titration spanning the range from 5,000 to 313 cells per well. The mct-spheroids including 60% malignant cells, 25% HUVEC and 15% MSC dispensed as a mixture into U-bottom Ultra-Low Attachment 384-well plates (Corning, NY)
High-throughput Drug Combination Screening.
Prior to their inoculation into 384-well plates, malignant cells, HUVEC, and hMSC were removed from T flasks using TrypLE express (Thermo Fisher Scientific, cat. 12605036) and harvested by centrifugation for 5 min at 233 x g. […]

Q: Which results are given for `CC(=O)Nc1cccc(-n2c(=O)n(C3CC3)c(=O)c3c(Nc4ccc(I)cc4F)n(C)c(=O)c(C)c32)c1` + CC(C)NCC(C(=O)N1CCN(c2ncnc3c2C(C)CC3O)CC1)c1ccc(Cl)cc1?
A: IC50 (second compound 0.3 µM): 0.203 nM; IC50 (second compound 0.949 µM): 0.15 nM; IC50 (second compound 3 µM): < 0.0949 nM; IC50 (second compound 9.49 µM): < 0.0949 nM; IC50 (second compound 30 µM): < 0.0949 nM; viability, T/C (second compound 0.3 µM, first compound 94.9 pM): 78.9%; viability, T/C (second compound 0.3 µM, first compound 0.0003 µM): 35.2%; viability, T/C (second compound 0.3 µM, first compound 0.000949 µM): 10.4%; viability, T/C (second compound 0.3 µM, first compound 0.003 µM): 5.62%; viability, T/C (second compound 0.3 µM, first compound 0.00949 µM): 2.19%; viability, T/C (second compound 0.3 µM, first compound 0.03 µM): 1.65%; viability, T/C (second compound 0.949 µM, first compound 94.9 pM): 63.2%; viability, T/C (second compound 0.949 µM, first compound 0.0003 µM): 29.8%; viability, T/C (second compound 0.949 µM, first compound 0.000949 µM): 10.2%; viability, T/C (second compound 0.949 µM, first compound 0.003 µM): 3.49%; viability, T/C (second compound 0.949 µM, first compound 0.00949 µM): 1.83%; viability, T/C (second compound 0.949 µM, first compound 0.03 µM): 1.53%; viability, T/C (second compound 3 µM, first compound 94.9 pM): 47%; viability, T/C (second compound 3 µM, first compound 0.0003 µM): 21%; viability, T/C (second compound 3 µM, first compound 0.000949 µM): 3.96%; viability, T/C (second compound 3 µM, first compound 0.003 µM): 2.14%; viability, T/C (second compound 3 µM, first compound 0.00949 µM): 1.28%; viability, T/C (second compound 3 µM, first compound 0.03 µM): 0.92%; viability, T/C (second compound 9.49 µM, first compound 94.9 pM): 39%; viability, T/C (second compound 9.49 µM, first compound 0.0003 µM): 19.2%; viability, T/C (second compound 9.49 µM, first compound 0.000949 µM): 5.57%; viability, T/C (second compound 9.49 µM, first compound 0.003 µM): 1.46%; viability, T/C (second compound 9.49 µM, first compound 0.00949 µM): 1.58%; viability, T/C (second compound 9.49 µM, first compound 0.03 µM): 0.65%; viability, T/C (second compound 30 µM, first compound 94.9 pM): 39.5%; viability, T/C (second compound 30 µM, first compound 0.0003 µM): 17.5%; viability, T/C (second compound 30 µM, first compound 0.000949 µM): 3.27%; viability, T/C (second compound 30 µM, first compound 0.003 µM): 1.19%; viability, T/C (second compound 30 µM, first compound 0.00949 µM): 0.56%; viability, T/C (second compound 30 µM, first compound 0.03 µM): 1.06%

Q: Which results are given for `CC(C)CC(NC(=O)C(Cc1ccccc1)NC(=O)c1cnccn1)B(O)O` (stereo not given) + CC(C)NCC(C(=O)N1CCN(c2ncnc3c2C(C)CC3O)CC1)c1ccc(Cl)cc1?
A: IC50 (second compound 0.3 µM): > 10 nM; IC50 (second compound 0.949 µM): > 10 nM; IC50 (second compound 3 µM): > 10 nM; IC50 (second compound 9.49 µM): 4.24 nM; IC50 (second compound 30 µM): 7.76 nM; viability, T/C (second compound 0.3 µM, first compound 31.6 pM): 116%; viability, T/C (second compound 0.3 µM, first compound 0.0001 µM): 110%; viability, T/C (second compound 0.3 µM, first compound 0.000316 µM): 104%; viability, T/C (second compound 0.3 µM, first compound 0.001 µM): 117%; viability, T/C (second compound 0.3 µM, first compound 0.00316 µM): 122%; viability, T/C (second compound 0.3 µM, first compound 0.01 µM): 103%; viability, T/C (second compound 0.949 µM, first compound 31.6 pM): 120%; viability, T/C (second compound 0.949 µM, first compound 0.0001 µM): 116%; viability, T/C (second compound 0.949 µM, first compound 0.000316 µM): 111%; viability, T/C (second compound 0.949 µM, first compound 0.001 µM): 119%; viability, T/C (second compound 0.949 µM, first compound 0.00316 µM): 111%; viability, T/C (second compound 0.949 µM, first compound 0.01 µM): 118%; viability, T/C (second compound 3 µM, first compound 31.6 pM): 119%; viability, T/C (second compound 3 µM, first compound 0.0001 µM): 117%; viability, T/C (second compound 3 µM, first compound 0.000316 µM): 98.7%; viability, T/C (second compound 3 µM, first compound 0.001 µM): 106%; viability, T/C (second compound 3 µM, first compound 0.00316 µM): 114%; viability, T/C (second compound 3 µM, first compound 0.01 µM): 114%; viability, T/C (second compound 9.49 µM, first compound 31.6 pM): 118%; viability, T/C (second compound 9.49 µM, first compound 0.0001 µM): 119%; viability, T/C (second compound 9.49 µM, first compound 0.000316 µM): 113%; viability, T/C (second compound 9.49 µM, first compound 0.001 µM): 109%; viability, T/C (second compound 9.49 µM, first compound 0.00316 µM): 62.5%; viability, T/C (second compound 9.49 µM, first compound 0.01 µM): 13.1%; viability, T/C (second compound 30 µM, first compound 31.6 pM): 115%; viability, T/C (second compound 30 µM, first compound 0.0001 µM): 123%; viability, T/C (second compound 30 µM, first compound 0.000316 µM): 111%; viability, T/C (second compound 30 µM, first compound 0.001 µM): 114%; viability, T/C (second compound 30 µM, first compound 0.00316 µM): 119%; viability, T/C (second compound 30 µM, first compound 0.01 µM): 31.2%
